Source: patent US8993752B2, “Neprilysin inhibitors” (Theravance Biopharma R&D IP, LLC, priority 2011, dated 2015)

Target: T1, human NEP (Homo sapiens, UniProt P08473)
T1 construct: purchased R&D Systems, Minneapolis, Minn; 1182-ZN
Test: In vitro enzyme inhibition assay at human NEP (fluorogenic peptide substrate)
Assay type: biochemical
Settings: recombinant human NEP; substrate Mca-D-Arg-Arg-Leu-Dap-(Dnp)-OH 10 μM; 37° C.; values given as ranges; read-out: pKi values at human NEP (converted)
How it was run: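 Recombinant human NEP pre-incubated 30 min at 37 °C with compound (10 μM to 20 pM), then 10 μM Mca-D-Arg-Arg-Leu-Dap-(Dnp)-OH in 50 mM HEPES pH 7.5, 100 mM NaCl, 0.01% Tween-20, 10 μM ZnSO4. Stopped after 20 min with acetic acid, fluorescence read at 320/405 nm; Ki from nonlinear fit, reported as pKi.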

T1 sequence (P08473 whole entry): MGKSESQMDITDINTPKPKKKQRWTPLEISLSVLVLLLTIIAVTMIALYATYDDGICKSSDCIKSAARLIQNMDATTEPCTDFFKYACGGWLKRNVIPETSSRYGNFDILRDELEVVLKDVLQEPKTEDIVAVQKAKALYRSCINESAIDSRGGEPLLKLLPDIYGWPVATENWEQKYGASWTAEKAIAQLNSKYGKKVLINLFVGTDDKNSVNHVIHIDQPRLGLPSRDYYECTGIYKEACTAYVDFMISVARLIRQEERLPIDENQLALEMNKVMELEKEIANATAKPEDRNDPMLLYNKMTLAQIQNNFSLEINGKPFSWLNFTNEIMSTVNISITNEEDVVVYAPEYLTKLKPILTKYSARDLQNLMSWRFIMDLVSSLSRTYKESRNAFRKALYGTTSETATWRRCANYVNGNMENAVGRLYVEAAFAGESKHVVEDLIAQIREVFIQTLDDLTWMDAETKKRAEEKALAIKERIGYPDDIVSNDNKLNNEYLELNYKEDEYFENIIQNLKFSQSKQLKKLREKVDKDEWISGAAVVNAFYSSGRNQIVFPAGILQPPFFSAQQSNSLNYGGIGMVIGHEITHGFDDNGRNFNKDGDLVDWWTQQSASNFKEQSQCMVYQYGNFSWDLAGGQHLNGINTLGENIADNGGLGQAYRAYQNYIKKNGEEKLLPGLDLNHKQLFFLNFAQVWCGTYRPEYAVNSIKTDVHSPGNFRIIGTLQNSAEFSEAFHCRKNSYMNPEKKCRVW

Row | Ki [nM] | SMILES
1 | 12.6 to 100 | O=C(N[C@H](Cc1ccccc1)[C@@H](O)C(=O)O)c1cnn(-c2ccccn2)c1 [Example 9-1, (2R,3R)-2-Hydroxy-4-phenyl-3-[(1-pyridin-2-yl-1H-pyrazole-4-carbonyl)-amino]-butyric acid]
2 | 12.6 to 100 | COc1cccc(Cn2nc(C(=O)N[C@@H](CC(=O)O)Cc3ccccc3Cl)cc2C(=O)O)c1 [Example 11-1, 5-[(R)-2-Carboxy-1-(2-chloro-benzyl)-ethylcarbamoyl]-2-(3-methoxy-benzyl)-2H-pyrazole-3-carboxylic acid]
3 | 12.6 to 100 | COc1ccc(Cn2nc(C(=O)N[C@@H](CC(=O)O)Cc3ccccc3Cl)cc2C(=O)O)cc1 [Example 11-2, 5-[(R)-2-Carboxy-1-(2-chloro-benzyl)-ethylcarbamoyl]-2-(4-methoxy-benzyl)-2H-pyrazole-3-carboxylic acid]
4 | 12.6 to 100 | O=C(O)C[C@@H](Cc1ccccc1Cl)NC(=O)c1cc(C(=O)O)n(Cc2ccc(Cl)cc2)n1 [Example 11-3, 5-[(R)-2-Carboxy-1-(2-chloro-benzyl)-ethylcarbamoyl]-2-(4-chloro-benzyl)-2H-pyrazole-3-carboxylic acid]
5 | 12.6 to 100 | O=C(O)C[C@@H](Cc1ccccc1Cl)NC(=O)c1cc(C(=O)O)n(Cc2ccccc2)n1 [Example 11-4, 2-Benzyl-5-[(R)-2-carboxy-1-(2-chloro-benzyl)-ethylcarbamoyl]-2H-pyrazole-3-carboxylic acid]
6 | 12.6 to 100 | Cc1ccc(Cn2nc(C(=O)N[C@@H](CC(=O)O)Cc3ccccc3Cl)cc2C(=O)O)cc1 [Example 11-5, 5-[(R)-2-Carboxy-1-(2-chloro-benzyl)-ethylcarbamoyl]-2-(4-methyl-benzyl)-2H-pyrazole-3-carboxylic acid]
7 | 12.6 to 100 | O=C(O)C[C@@H](Cc1ccccc1Cl)NC(=O)c1cc(C(=O)O)n(Cc2cccc(F)c2)n1 [Example 11-6, 5-[(R)-2-Carboxy-1-(2-chloro-benzyl)-ethylcarbamoyl]-2-(3-fluoro-benzyl)-2H-pyrazole-3-carboxylic acid]
8 | 12.6 to 100 | O=C(O)C[C@@H](Cc1ccccc1Cl)NC(=O)c1cc(C(=O)O)[nH]n1 [Example 11-7, 5-[(R)-1-Carboxymethyl-2-(2-chloro-phenyl)-ethylcarbamoyl]-2H-pyrazole-3-carboxylic acid]

More lines, now with the values behind:

Row | SMILES | Ki [nM]
9 | O=C(N[C@H](Cc1ccccc1C(F)(F)F)[C@@H](O)C(=O)O)c1cc(C(=O)N2CC[C@H](C(=O)O)C2)[nH]n1 [Example 6-11, (S)-1-{5-[(1R,2R)-2-Carboxy-2-hydroxy-1-(2-trifluoromethyl-benzyl)-ethylcarbamoyl]-2H-pyrazole-3-carbonyl}-pyrrolidine-3-carboxylic acid] | 1.26 to 10
10 | O=C(N[C@H](Cc1ccccc1)[C@@H](O)C(=O)O)c1cc(C(=O)O)n(Cc2ccc(Cl)cc2F)n1 [Example 8-1, 5-((1R,2R)-1-Benzyl-2-carboxy-2-hydroxy-ethylcarbamoyl)-2-(4-chloro-2-fluoro-benzyl)-2H-pyrazole-3-carboxylic acid] | 1.26 to 10
11 | O=C(N[C@H](Cc1ccccc1)[C@@H](O)C(=O)O)c1cc(C(=O)O)n(Cc2c(F)cc(Cl)cc2F)n1 [Example 8-3, 5-((1R,2R)-1-Benzyl-2-carboxy-2-hydroxy-ethylcarbamoyl)-2-(4-chloro-2,6-difluoro-benzyl)-2H-pyrazole-3-carboxylic acid] | 1.26 to 10
12 | O=C(N[C@H](Cc1ccccc1)[C@@H](O)C(=O)O)c1cc(C(=O)O)n(Cc2cccc(F)c2)n1 [Example 8-4, 5-((1R,2R)-1-Benzyl-2-carboxy-2-hydroxy-ethylcarbamoyl)-2-(3-fluoro-benzyl)-2H-pyrazole-3-carboxylic acid] | 1.26 to 10
13 | COc1cccc(Cn2nc(C(=O)N[C@H](Cc3ccccc3)[C@@H](O)C(=O)O)cc2C(=O)O)c1 [Example 8-5, 5-((1R,2R)-1-Benzyl-2-carboxy-2-hydroxy-ethylcarbamoyl)-2-(3-methoxy-benzyl)-2H-pyrazole-3-carboxylic acid] | 1.26 to 10
14 | O=C(N[C@H](Cc1ccccc1)[C@@H](O)C(=O)O)c1cc(C(=O)O)n(Cc2ccc(Cl)cc2)n1 [Example 8-6, 5-((1R,2R)-1-Benzyl-2-carboxy-2-hydroxy-ethylcarbamoyl)-2-(4-chloro-benzyl)-2H-pyrazole-3-carboxylic acid] | 1.26 to 10
15 | O=C(N[C@H](Cc1ccccc1)[C@@H](O)C(=O)O)c1cc(C(=O)O)n(Cc2ccccc2)n1 [Example 8-8, 2-Benzyl-5-((1R,2R)-1-benzyl-2-carboxy-2-hydroxy-ethylcarbamoyl)-2H-pyrazole-3-carboxylic acid] | 1.26 to 10
16 | O=C(N[C@H](Cc1ccccc1)[C@@H](O)C(=O)O)c1cc(C(=O)O)n(Cc2ccc(F)cc2)n1 [Example 8-9, 5-((1R,2R)-1-Benzyl-2-carboxy-2-hydroxy-ethylcarbamoyl)-2-(4-fluoro-benzyl)-2H-pyrazole-3-carboxylic acid] | 1.26 to 10
17 | O=C(N[C@H](Cc1ccccc1)[C@@H](O)C(=O)O)c1cc(C(=O)O)[nH]n1 [Example 8-10, 5-((1R,2R)-1-Benzyl-2-carboxy-2-hydroxy-ethylcarbamoyl)-2H-pyrazole-3-carboxylic acid] | 12.6 to 100
18 | O=C(N[C@H](Cc1ccccc1)[C@@H](O)C(=O)O)c1cc([N+](=O)[O-])[nH]n1 [Example 8-11, (2R,3R)-2-Hydroxy-3-[(5-nitro-1H-pyrazole-3-carbonyl)-amino]-4-phenyl-butyric acid] | 12.6 to 100
19 | CCn1nc(C(=O)N[C@H](Cc2ccccc2)[C@@H](O)C(=O)O)cc1C(=O)O [Example 8-12, 5-((1R,2R)-1-Benzyl-2-carboxy-2-hydroxy-ethylcarbamoyl)-2-ethyl-2H-pyrazole-3-carboxylic acid] | 12.6 to 100
20 | COCCn1nc(C(=O)N[C@H](Cc2ccccc2)[C@@H](O)C(=O)O)cc1C(=O)O [Example 8-13, 5-((1R,2R)-1-Benzyl-2-carboxy-2-hydroxy-ethylcarbamoyl)-2-(2-methoxy-ethyl)-2H-pyrazole-3-carboxylic acid] | 12.6 to 100
21 | O=C(N[C@H](Cc1ccccc1)[C@@H](O)C(=O)O)c1cc(C(=O)O)n(CCO)n1 [Example 8-14, 5-((1R,2R)-1-Benzyl-2-carboxy-2-hydroxy-ethylcarbamoyl)-2-(2-hydroxy-ethyl)-2H-pyrazole-3-carboxylic acid] | 12.6 to 100
22 | O=C(N[C@H](Cc1ccccc1)[C@@H](O)C(=O)O)c1cc(C(=O)O)n(Cc2cccnc2)n1 [Example 8-15, 5-((1R,2R)-1-Benzyl-2-carboxy-2-hydroxy-ethylcarbamoyl)-2-pyridin-3-ylmethyl-2H-pyrazole-3-carboxylic acid] | 12.6 to 100
23 | O=C(N[C@H](Cc1ccccc1)[C@@H](O)C(=O)O)c1ccn(Cc2ccc(Cl)cc2)n1 [Example 8-16, (2R,3R)-3-{[1-(4-Chloro-benzyl)-1H-pyrazole-3-carbonyl]-amino}-2-hydroxy-4-phenyl-butyric acid] | 12.6 to 100
24 | CN(C)C(=O)c1cc(C(=O)N[C@H](Cc2ccccc2)[C@@H](O)C(=O)O)nn1Cc1ccc(Cl)cc1 [Example 8-17, (2R,3R)-3-{[1-(4-Chloro-benzyl)-5-dimethylcarbamoyl-1H-pyrazole-3-carbonyl]-amino}-2-hydroxy-4-phenyl-butyric acid] | 12.6 to 100
25 | O=C(N[C@H](Cc1ccccc1)[C@@H](O)C(=O)O)c1cc(C(=O)N2CCOCC2)n(Cc2ccc(Cl)cc2)n1 [Example 8-18, (2R,3R)-3-{[1-(4-Chloro-benzyl)-5-(morpholine-4-carbonyl)-1H-pyrazole-3-carbonyl]-amino}-2-hydroxy-4-phenyl-butyric acid] | 12.6 to 100
26 | CCCc1cc(C(=O)N[C@H](Cc2ccccc2)[C@@H](O)C(=O)O)nn1Cc1ccccc1 [Example 8-19, (2R,3R)-3-[(1-Benzyl-5-propyl-1H-pyrazole-3-carbonyl)-amino]-2-hydroxy-4-phenyl-butyric acid] | 12.6 to 100
27 | COc1ccc(Cn2nc(C(=O)N[C@H](Cc3ccccc3)[C@@H](O)C(=O)O)cc2C2CC2)cc1 [Example 8-20, (2R,3R)-3-{[5-Cyclopropyl-1-(4-methoxy-benzyl)-1H-pyrazole-3-carbonyl]-amino}-2-hydroxy-4-phenyl-butyric acid] | 1.26 to 10
28 | COc1ccc(Cn2nc(C(=O)N[C@H](Cc3ccccc3)[C@@H](O)C(=O)O)cc2C2CC2)c(F)c1F [Example 8-21, (2R,3R)-3-{[5-Cyclopropyl-1-(2,3-difluoro-4-methoxy-benzyl)-1H-pyrazole-3-carbonyl]-amino}-2-hydroxy-4-phenyl-butyric acid] | 1.26 to 10
29 | COc1c(F)c(F)c(Cn2nc(C(=O)N[C@H](Cc3ccccc3)[C@@H](O)C(=O)O)cc2C2CC2)c(F)c1F [Example 8-22, (2R,3R)-3-{[5-Cyclopropyl-1-(2,3,5,6-tetrafluoro-4-methoxy-benzyl)-1H-pyrazole-3-carbonyl]-amino}-2-hydroxy-4-phenyl-butyric acid] | ≤ 1
30 | CSc1ccc(Cn2nc(C(=O)N[C@H](Cc3ccccc3)[C@@H](O)C(=O)O)cc2C2CC2)cc1 [Example 8-23, (2R,3R)-3-{[5-Cyclopropyl-1-(4-methylsulfanyl-benzyl)-1H-pyrazole-3-carbonyl]-amino}-2-hydroxy-4-phenyl-butyric acid] | 12.6 to 100
31 | CCOc1ncc(Cn2nc(C(=O)N[C@H](Cc3ccccc3)[C@@H](O)C(=O)O)cc2C2CC2)cn1 [Example 8-24, (2R,3R)-3-{[5-Cyclopropyl-1-(2-ethoxy-pyrimidin-5-ylmethyl)-1H-pyrazole-3-carbonyl]-amino}-2-hydroxy-4-phenyl-butyric acid] | 12.6 to 100
32 | O=C(O)C[C@@H](Cc1ccccc1Cl)NC(=O)c1cc(C(=O)O)n(Cc2cccc(Cl)c2)n1 [Example 10, 5-[(R)-2-Carboxy-1-(2-chlorobenzyl)-ethylcarbamoyl]-2-(3-chlorobenzyl)-2H-pyrazole-3-carboxylic Acid] | 1.26 to 10
